Source: patent publication US8791132B2, “Compounds and methods for treatment of hypertension” (Medivation Technologies, Inc., priority 2011, dated 2014)
Read-outs that look alike come from different tables or passages of the source.

Experiments:
[1] = target: T1, human recombinant adrenergic α1D receptor (Homo sapiens, UniProt P25100); assay: Radioligand binding, adrenergic α1D ([3H]Prazosin); settings: for Percentage inhibition of ligand binding, Adrenergic α1D: 0.1 µM
T1 construct: expressed in transfected cells; host or cells: HEK-293
T1 sequence (P25100 1-572): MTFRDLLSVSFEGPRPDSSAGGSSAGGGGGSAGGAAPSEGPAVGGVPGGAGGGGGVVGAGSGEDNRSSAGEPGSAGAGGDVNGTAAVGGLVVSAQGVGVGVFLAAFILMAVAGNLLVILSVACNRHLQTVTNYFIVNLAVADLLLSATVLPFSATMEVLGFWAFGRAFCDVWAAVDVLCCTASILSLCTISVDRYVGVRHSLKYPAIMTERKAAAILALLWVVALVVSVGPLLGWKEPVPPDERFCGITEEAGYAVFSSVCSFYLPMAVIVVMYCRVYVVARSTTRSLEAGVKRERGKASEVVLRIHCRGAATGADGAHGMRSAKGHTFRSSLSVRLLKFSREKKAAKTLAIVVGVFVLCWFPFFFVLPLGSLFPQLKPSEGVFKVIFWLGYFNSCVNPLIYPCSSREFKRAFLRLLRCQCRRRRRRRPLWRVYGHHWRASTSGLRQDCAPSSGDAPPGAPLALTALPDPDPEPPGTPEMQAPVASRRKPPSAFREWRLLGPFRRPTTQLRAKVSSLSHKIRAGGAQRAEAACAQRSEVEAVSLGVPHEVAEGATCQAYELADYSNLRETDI
Procedure: Compounds were incubated with 0.6 nM [3H]Prazosin for 60 min at 25° C. Non-specific binding was estimated in the presence of 10 μM phentolamine. Receptor proteins were filtered and washed, the filters were then counted to determine [3H]Prazosin specifically bound. […] Biochemical assay results are presented as the percent inhibition of specific binding in Table B1.

[2] = target: T2, human recombinant adrenergic α2A receptor (Homo sapiens, UniProt P08913); assay: Radioligand binding, adrenergic α2A ([3H]MK-912)
T2 construct: expressed in transfected cells; host or cells: insect Sf9 cells
T2 sequence (P08913 1-465): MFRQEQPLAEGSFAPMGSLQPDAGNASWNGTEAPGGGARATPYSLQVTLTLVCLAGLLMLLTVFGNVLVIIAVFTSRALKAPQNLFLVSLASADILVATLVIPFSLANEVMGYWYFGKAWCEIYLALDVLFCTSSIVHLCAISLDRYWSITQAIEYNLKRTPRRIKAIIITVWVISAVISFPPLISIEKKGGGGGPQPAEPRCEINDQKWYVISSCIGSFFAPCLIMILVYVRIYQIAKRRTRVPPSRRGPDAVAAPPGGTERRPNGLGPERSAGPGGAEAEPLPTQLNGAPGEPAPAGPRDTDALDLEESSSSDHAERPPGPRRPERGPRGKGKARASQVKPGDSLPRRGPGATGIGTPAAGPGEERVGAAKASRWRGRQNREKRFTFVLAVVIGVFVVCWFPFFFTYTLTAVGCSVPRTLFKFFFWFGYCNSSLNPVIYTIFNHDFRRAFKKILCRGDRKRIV
Summary of the method: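 Sf9 membranes, 1 nM [3H]MK-912, 60 min, 25 °C, Tris-HCl pH 7.4/MgCl2/EDTA buffer. NSB: 10 μM WB-4101. Filtration, counting; % inhibition of specific binding.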

[3] = target: T3, human recombinant adrenergic α2B receptor (Homo sapiens, UniProt P18089); assay: Radioligand binding, adrenergic α2B ([3H]Rauwolscine)
T3 construct: expressed in transfected cells; host or cells: CHO-K1
T3 sequence (P18089 1-450): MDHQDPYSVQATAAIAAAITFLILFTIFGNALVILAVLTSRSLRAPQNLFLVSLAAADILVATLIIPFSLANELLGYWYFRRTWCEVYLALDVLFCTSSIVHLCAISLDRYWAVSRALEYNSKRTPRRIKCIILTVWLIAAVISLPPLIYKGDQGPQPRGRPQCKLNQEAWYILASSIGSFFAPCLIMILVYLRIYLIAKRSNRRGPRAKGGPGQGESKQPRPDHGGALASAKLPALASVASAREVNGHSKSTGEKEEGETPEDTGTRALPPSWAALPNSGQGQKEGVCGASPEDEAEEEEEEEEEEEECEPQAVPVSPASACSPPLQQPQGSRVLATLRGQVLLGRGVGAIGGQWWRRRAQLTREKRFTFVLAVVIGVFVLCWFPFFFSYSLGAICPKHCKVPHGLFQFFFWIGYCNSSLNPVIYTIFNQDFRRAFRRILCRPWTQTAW
Summary of the method: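 Assay used CHO-K1-expressed human α2B receptor in Tris-HCl pH 7.4 buffer with MgCl2, EDTA and BSA; 60 min incubation at 25 °C.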

[4] = target: T4, rat adrenergic α1B receptor (Rattus norvegicus, UniProt P15823); assay: Radioligand binding, adrenergic α1B ([3H]Prazosin)
T4 construct: rat adrenergic α1B receptor obtained from Wistar Rat liver; from tissue; host or cells: Wistar rat liver
T4 sequence (P15823 1-515): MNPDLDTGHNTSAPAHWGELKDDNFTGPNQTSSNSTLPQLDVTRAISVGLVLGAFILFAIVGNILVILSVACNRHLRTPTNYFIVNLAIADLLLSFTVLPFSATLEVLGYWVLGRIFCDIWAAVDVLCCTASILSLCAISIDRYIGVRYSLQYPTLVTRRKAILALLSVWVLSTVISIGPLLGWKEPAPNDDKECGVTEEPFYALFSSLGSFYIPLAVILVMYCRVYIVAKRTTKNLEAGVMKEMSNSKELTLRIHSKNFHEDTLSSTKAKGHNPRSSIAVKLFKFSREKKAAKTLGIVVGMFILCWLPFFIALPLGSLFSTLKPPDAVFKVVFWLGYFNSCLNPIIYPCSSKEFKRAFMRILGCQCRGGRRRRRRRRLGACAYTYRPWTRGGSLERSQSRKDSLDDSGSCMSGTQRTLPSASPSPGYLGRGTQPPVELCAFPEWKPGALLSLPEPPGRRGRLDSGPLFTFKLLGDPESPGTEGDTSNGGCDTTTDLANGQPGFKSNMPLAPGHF
Summary of the method: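 Rat α1B receptor from Wistar rat liver was incubated with 0.25 nM [3H]prazosin for 60 min at 25 °C in 50 mM Tris-HCl, pH 7.4, 0.5 mM EDTA. Non-specific binding was defined with 10 μM phentolamine. Bound radioligand was measured by filtration and counting, reported as percent inhibition of specific binding.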

[5] = 0.1 μM compound, read-out: Percentage inhibition of ligand binding, Adrenergic α1D
[6] = 0.1 μM compound, read-out: Percentage inhibition of ligand binding, Adrenergic α2A
[7] = 0.1 μM compound, read-out: Percentage inhibition of ligand binding, Adrenergic α2B
[8] = 0.1 μM compound, read-out: Percentage inhibition of ligand binding, Adrenergic α1B
[9] = read-out: Percentage inhibition of ligand binding, Adrenergic α2A (0.1 μM), compound at 0.1 μM, [3H]MK-912, repeat datapoints each shown
[10] = read-out: Percentage inhibition of ligand binding, Adrenergic α2B (0.1 μM), compound at 0.1 μM, [3H]Rauwolscine, repeat datapoints each shown
[11] = read-out: Percentage inhibition of ligand binding, Adrenergic α1D (0.1 μM), compound at 0.1 μM, [3H]Prazosin, repeat datapoints each shown
[12] = read-out: Percentage inhibition of ligand binding, Adrenergic α1B (0.1 μM), compound at 0.1 μM, [3H]Prazosin, repeat datapoints each shown

inhibition at 0.1 µM [1, 5] [%] | inhibition at 0.1 µM [2, 6] [%] | inhibition at 0.1 µM [3, 7] [%] | inhibition at 0.1 µM [4, 8] [%] | Structure (SMILES) | further results
12 | 78 | 14 | 18 | Cc1ccc2c(c1)c1c(n2C2=C(c3cccc4ccccc34)CCC2)CCN(C)C1 [compound 306, 2,8-dimethyl-5-(2-(naphthalen-1-yl)cyclopent-1-enyl)-2,3,4,5-tetrahydro-1H-pyrido[4,3-b]indole] | –
70 | 53 | 99 | 53 | C/C(=C\n1c2c(c3cc(C)ccc31)CN(C)CC2)c1ccc(C(F)(F)F)nc1 [compound 331] | –
56 | 66 | 18 | 61 | Cc1ccc2c(c1)c1c(n2CCc2cnc3ccccc3c2)CCN(C)C1 [compound 320] | –
66 | 59 | 90 | 94 | Cc1ccc2c(c1)c1c(n2C#Cc2cnc3ccccc3c2)CCN(C)C1 [compound 321, 2,8-dimethyl-5-quinolin-3-ylethynyl-2,3,4,5-tetrahydro-1H-pyrido[4,3-b]indole] | –
27 | 79 | 81 | 15 | Cc1csc(C2=C(n3c4c(c5cc(C)ccc53)CN(C)CC4)CCC2)c1 [compound 304, 2,8-dimethyl-5-(2-(4-methylthiophen-2-yl)cyclopent-1-enyl)-2,3,4,5-tetrahydro-1H-pyrido[4,3-b]indole] | –
79 | 80 | 96 | 90 | C/C(=C/n1c2c(c3cc(C)ccc31)CN(C)CC2)c1cccc2[nH]ncc12 [compound 290] | –
47 | 52 | 54 | 78 | Cc1ccc(CCn2c3c(c4cc(C)ccc42)CN(C)CC3)nc1 [compound 299, 2,8-dimethyl-5-[2-(5-methyl-pyridin-2-yl)-ethyl]-2,3,4,5-tetrahydro-1H-pyrido[4,3-b]indole] | –

The next lines start with the molecule.

Structure (SMILES) | inhibition at 0.1 µM [1, 5] [%] | inhibition at 0.1 µM [2, 6] [%] | inhibition at 0.1 µM [3, 7] [%] | inhibition at 0.1 µM [4, 8] [%] | further results
Cc1ccc(CCn2c3c(c4cc(Cl)ccc42)CN(C)CC3)cc1 [compound 208] | – | – | – | – | inhibition at 0.03 µM ([1]; read-out: Percentage inhibition of ligand binding, Adrenergic α1D (0.03 μM), compound at 0.03 μM, [3H]Prazosin, repeat datapoints each shown): 41%; inhibition at 0.1 µM [2, 9]: 101%; inhibition at 0.1 µM [3, 10]: 97%; inhibition at 0.03 µM ([4]; read-out: Percentage inhibition of ligand binding, Adrenergic α1B (0.03 μM), compound at 0.03 μM, [3H]Prazosin, repeat datapoints each shown): 60%
C/C(=C\n1c2c(c3cc(Cl)ccc31)CCN(C)CC2)c1ccccc1F [compound 233] | – | – | – | – | inhibition at 0.1 µM [1, 11]: 28%; inhibition at 0.1 µM [2, 9]: 80%; inhibition at 0.1 µM [3, 10]: 103%; inhibition at 0.1 µM [4, 12]: 73%
CN1CCc2c(n(CC(C)(O)c3ccc(F)cc3)c3ccc(Cl)cc23)CC1 (stereo not shown) [compound 221] | – | – | – | – | inhibition at 0.1 µM [1, 11]: 16%; inhibition at 0.1 µM [2, 9]: 56%; inhibition at 0.1 µM [3, 10]: 80%; inhibition at 0.1 µM [4, 12]: 65%
C/C(=C/n1c2c(c3cc(Cl)ccc31)CN(C)CC2)c1cc(F)c(F)cc1Cl [compound 252] | 13 | 66 | 52 | 36 | –
Cc1ccc2c(c1)c1c(n2/C=C(\F)c2ccncc2)CCN(C)C1 [compound 105] | – | – | – | – | inhibition at 0.1 µM [1, 11]: 36%; inhibition at 0.1 µM [2, 9]: 14%; inhibition at 0.1 µM [3, 10]: 68%; inhibition at 0.1 µM [4, 12]: 57%
C/C(=C\c1ccccc1)n1c2c(c3cc(C)ccc31)CN(C)CC2 [compound 265] | 30 | 67 | 70 | 50 | –
COc1ccc(/C(C)=C/n2c3c(c4cc(C)ccc42)CN(C)CC3)cn1 [compound 266] | 72 | 62 | 92 | 63 | –
C/C(=C\n1c2c(c3cc(C)ccc31)CN(C)CC2)c1ccc(F)nc1 [II-96] | 31 | 49 | 95 | 39 | –
C/C(=C/n1c2c(c3cc(C)ccc31)CN(C)CC2)c1ccc(C)s1 [compound 277] | 84 | 98 | 97 | 71 | –
CC(Cn1c2c(c3ccccc31)CN(C)CC2)c1ccc(F)cc1 (single isomer, unassigned) [272a] | – | – | – | 27 | Percentage inhibition of ligand binding, Adrenergic α1D ([1]; 0.1 μM compound): 12%; Percentage inhibition of ligand binding, Adrenergic α2A ([2]; 0.1 μM compound, 0.1 µM): 33%; Percentage inhibition of ligand binding, Adrenergic α2B ([3]; 0.1 μM compound): −10%
C/C(=C/n1c2c(c3cc(C)ccc31)CN(C)CC2)c1ccnn1C [compound 273] | 71 | 67 | 89 | 88 | –
CCC1c2c(c3cc(Cl)ccc3n2CC(C)(O)c2ccc(F)cc2)CCN1C (stereo not shown) [II-161] | – | – | – | – | inhibition at 0.1 µM [1, 11]: 2%; inhibition at 0.1 µM [2, 9]: 7%; inhibition at 0.1 µM [3, 10]: 13%; inhibition at 0.1 µM [4, 12]: 7%
Cc1ccc2c(c1)c1c(n2CC(C)c2ccc(F)cc2)CCN(C)C1 (single isomer, unassigned) [288b] | – | – | – | – | Percentage inhibition of ligand binding, Adrenergic α1D ([1]; 0.1 μM compound): 17%; Percentage inhibition of ligand binding, Adrenergic α2A ([2]; 0.1 μM compound): 67%; Percentage inhibition of ligand binding, Adrenergic α1B ([4]; 0.1 μM compound): 39%
